Marks after values point to notes of the source that are not given here.
Test system: C. albicans R303
Test: Mouse candidiasis infection model, C. albicans density in kidneys
Type: in vivo, female CD-1 mice
Settings: for Difference from 24-hr control / Mean log10 CFU/kidneys (±SD) / Difference from 24-h control / Mean log10 CFU/kidneys (±SEM): kidneys at 24 hr
Protocol: The objective of these studies was to evaluate the efficacy of test compounds in the mouse candidiasis infection model.
The strain, C. albicans R303 was transferred from frozen storage onto Sabauroud dextrose agar (SDA) plates and grown for ˜24 hr at 35° C. The inoculum was prepared by transferring colonies from the plate to phosphate buffered saline (PBS) and the concentration adjusted to 10^6 CFU/mL with the aid of a spectrophotometer. The stock was diluted 1:9 to prepare the inoculum. Prior to each run the concentration was verified using the dilution plate count method.
The female CD-1 mice used in this study were obtained from Charles River Laboratories, Portage, MI. The animals were approximately seven-weeks-old at the start of the study and weighed about 16-26 g.
In one approach, mice were made neutropenic with IP injections of cyclophosphamide (150 mg/kg in 10 mL/kg) at 4 and 1 day before inoculation. Each animal was inoculated with the appropriate concentration by injecting 0.1 mL of inoculum into a tail vein. The test compounds were administered IP at 2 hr after infection.
The kidneys were collected from four mice in control group 1 (untreated) at 2 hr after infection, and from the remaining mice in the study at 24 hr after infection. Kidneys were removed aseptically from each mouse and were combined in a sterile tube. An aliquot (2 mL) of sterile PBS was added to each tube and the contents homogenized with a tissue homogenizer (Polytron 3100). Serial dilutions of the tissue homogenates were conducted and 0.1 mL aliquots were spread on SDA plates and the plates incubated at 35° C. overnight. The CFU/kidneys were determined from colony counts. Data were analyzed using one-way ANOVA with the Tukey-Kramer Multiple Comparisons Test (GraphPad InStat version 3.06, GraphPad Software, San Diego, Calif.).
Treatments were administered at 2 hr after infection with 2.1×10^5 CFU/mL of the organism. Data are the means of four mice.
Treatments were administered at 2 hr after infection with 6.4×10^5 CFU/mL of the organism. Data are the means of four mice.
Treatments were administered at 2 hr after infection with 3.8×10^5 CFU/mL of the organism. Data are the means of four mice.
Treatments were administered at 2 hr after infection with 3.8×10^5 CFU/rnL of the organism. Data are the means of four mice.

[1] = Second run, 5 mg/kg IP 2 hr after infection
[2] = Fourth run, 0.5 mg/kg IP 2 hr after infection
[3] = Fourth run, 1.5 mg/kg IP 2 hr after infection
[4] = Fourth run, 4.5 mg/kg IP 2 hr after infection
[5] = Third run, 0.5 mg/kg IP 2 hr after infection
[6] = Third run, 1.5 mg/kg IP 2 hr after infection
[7] = Third run, 4.5 mg/kg IP 2 hr after infection

CCC(C)CC(C)CCCCCCCCC(=O)NC1CC(O)C(NCCN)NC(=O)C2C(O)CCN2C(=O)C(C(O)CCNC(=O)OCCOCCOCCOC)NC(=O)C(C(O)C(O)c2ccc(O)cc2)NC(=O)C2CC(O)CN2C(=O)C(C(C)O)NC1=O (stereo not drawn) [Compound 15]
Difference from 24-hr control [1]: −0.45 ns log10 CFU/kidneys
Mean log10 CFU/kidneys (±SD) [1]: 4.75 ± 0.20 log10 CFU/kidneys

CCC(C)CC(C)CCCCCCCCC(=O)NC1CC(O)C(NCCOCCOCCOCCOC)NC(=O)C2C(O)CCN2C(=O)C(C(O)CCN)NC(=O)C(C(O)C(O)c2ccc(O)cc2)NC(=O)C2CC(O)CN2C(=O)C(C(C)O)NC1=O (stereo not drawn) [Compound 16]
Difference from 24-h control [2]: −0.16 ns log10 CFU/kidneys
Mean log10 CFU/kidneys (±SEM) [2]: 5.05 ± 0.12 log10 CFU/kidneys
Difference from 24-h control [3]: −0.04 ns log10 CFU/kidneys
Mean log10 CFU/kidneys (±SEM) [3]: 5.16 ± 0.03 log10 CFU/kidneys
Difference from 24-h control [4]: −0.42 ns log10 CFU/kidneys
Mean log10 CFU/kidneys (±SEM) [4]: 4.78 ± 0.18 log10 CFU/kidneys
Effect on density of C. albicans in the kidneys (Fourth run, all dose levels (0.5, 1.5, 4.5 mg/kg)): ineffective

CCC(C)CC(C)CCCCCCCCC(=O)NC1CC(O)C(NCCOC)NC(=O)C2C(O)CCN2C(=O)C(C(O)CCN)NC(=O)C(C(O)C(O)c2ccc(O)cc2)NC(=O)C2CC(O)CN2C(=O)C(C(C)O)NC1=O (stereo not drawn) [Compound 17]
Effect on density of C. albicans in the kidneys (Fourth run, 0.5 mg/kg): not
Difference from 24-h control [2]: −0.87 ns log10 CFU/kidneys
Mean log10 CFU/kidneys (±SEM) [2]: 4.33 ± 0.14 log10 CFU/kidneys
Difference from 24-h control [3]: −2.09*** log10 CFU/kidneys
Mean log10 CFU/kidneys (±SEM) [3]: 3.11 ± 0.14 log10 CFU/kidneys
Difference from 24-h control [4]: −4.25*** log10 CFU/kidneys
Mean log10 CFU/kidneys (±SEM) [4]: 0.95 ± 0.55 log10 CFU/kidneys
Effect on density of C. albicans in the kidneys (Fourth run, 4.5 and 1.5 mg/kg): significantly reduced the density

CCCCCOc1ccc(-c2ccc(-c3ccc(C(=O)NC4CC(O)C(OCCOC)NC(=O)C5C(O)C(C)CN5C(=O)C(C(C)O)NC(=O)C(C(O)C(O)c5ccc(O)cc5)NC(=O)C5CC(O)CN5C(=O)C(C(C)O)NC4=O)cc3)cc2)cc1 (stereo not drawn) [Compound 18]
Difference from 24-hr control [1]: −3.44*** log10 CFU/kidneys
Mean log10 CFU/kidneys (±SD) [1]: 1.76 ± 0.44 log10 CFU/kidneys

CCCCCOc1ccc(-c2ccc(-c3ccc(C(=O)NC4CC(O)C(OCCOCCOC)NC(=O)C5C(O)C(C)CN5C(=O)C(C(C)O)NC(=O)C(C(O)C(O)c5ccc(O)cc5)NC(=O)C5CC(O)CN5C(=O)C(C(C)O)NC4=O)cc3)cc2)cc1 (stereo not drawn) [Compound 19]
Difference from 24-hr control [1]: −3.49*** log10 CFU/kidneys
Mean log10 CFU/kidneys (±SD) [1]: 1.71 ± 0.35 log10 CFU/kidneys
Difference from 24-hr control [5]: −0.03 ns log10 CFU/kidneys
Mean log10 CFU/kidneys (±SEM) [5]: 4.84 ± 0.26 log10 CFU/kidneys
Difference from 24-hr control [6]: −2.06*** log10 CFU/kidneys
Mean log10 CFU/kidneys (±SEM) [6]: 2.82 ± 0.10 log10 CFU/kidneys
Difference from 24-hr control [7]: −3.82*** log10 CFU/kidneys
Mean log10 CFU/kidneys (±SEM) [7]: 1.05 ± 0.36 log10 CFU/kidneys

CCCCCOc1ccc(-c2ccc(-c3ccc(C(=O)NC4CC(O)C(OCCOCCOCCOC)NC(=O)C5C(O)C(C)CN5C(=O)C(C(C)O)NC(=O)C(C(O)C(O)c5ccc(O)cc5)NC(=O)C5CC(O)CN5C(=O)C(C(C)O)NC4=O)cc3)cc2)cc1 (stereo not drawn) [Compound 20]
Difference from 24-hr control [1]: −3.27*** log10 CFU/kidneys
Mean log10 CFU/kidneys (±SD) [1]: 1.93 ± 0.44 log10 CFU/kidneys

CCCCCOc1ccc(-c2ccc(-c3ccc(C(=O)NC4CC(O)C(OCCOCCO)NC(=O)C5C(O)C(C)CN5C(=O)C(C(C)O)NC(=O)C(C(O)C(O)c5ccc(O)cc5)NC(=O)C5CC(O)CN5C(=O)C(C(C)O)NC4=O)cc3)cc2)cc1 (stereo not drawn) [Compound 21]
Difference from 24-hr control [5]: −1.53** log10 CFU/kidneys
Mean log10 CFU/kidneys (±SEM) [5]: 3.35 ± 0.08 log10 CFU/kidneys
Difference from 24-hr control [6]: −2.62*** log10 CFU/kidneys
Mean log10 CFU/kidneys (±SEM) [6]: 2.26 ± 0.12 log10 CFU/kidneys
Difference from 24-hr control [7]: −4.22*** log10 CFU/kidneys
Mean log10 CFU/kidneys (±SEM) [7]: 0.65 ± 0.38 log10 CFU/kidneys
Effect on density of C. albicans in the kidneys compared to the infected controls (Third run, all dose levels (0.5, 1.5, 4.5 mg/kg)): significantly reduced the density

Reference: patent publication US20120190613A1, “ECHINOCANDIN DERIVATIVES” (priority 2009, published 2012)
